For data set [1], the system named is Mycobacterium smegmatis strain ATCC19420. Description: In vitro efficacy test using Mycobacterium smegmatis strain ATCC19420 (MIC). Conditions: Mycolicibacterium smegmatis, ATCC19420, 72 h, CA-MHB + 0.02% Tween 80, 30° C., read after 72 hours. It is filed as cell-based.
The subject of a further data set is M. tuberculosis H37Rv. In words: In vitro efficacy test using the H37Rv strain, Microplate Alamar Blue Assay (MABA) MIC. The format is cell-based, Mycobacterium tuberculosis. Conditions: for MIC: Mycobacterium tuberculosis, H37RV. (The colour change of resazurin is a common sign of viable cells or microbes.)
The subject of another data set is M. tuberculosis H37R. In words: microbe, parasite or virus in culture. It is filed as cell-based, Mycobacterium tuberculosis. Conditions: Mycobacterium tuberculosis, H37R; read-out: M. tuberculosis H37R LORA (MIC).
For the next data set, the system named is Vero Cell. In words: Vero cell cytotoxicity (IC50). The format is cell-based. Conditions: Chlorocebus sabaeus, Vero, African green monkey kidney cells.
Data set [2] is described as follows: Hela cell cytotoxicity (CC50). Particulars: human, HeLa cells (human cervical cancer cells), CC50_Hela, half of the toxic concentration.
Setting [3] is: aerobic, 7H9 medium, Alamar Blue, read-out: M. tuberculosis H37Rv MABA (MIC).
[4] abbreviates: wild-type H37Rv strain, two values per compound, read-out: MABA MIC vs. H37Rv.
Setting [5] is: wild-type H37Rv strain, two values per compound.

In brackets after ≈: the same amount, converted by molar mass. Where two headings read alike, the source gives them in different places.

In general, IC50 refers to the concentration needed to halve the response being measured. Usually CC50 stands for the concentration that lowers cell viability or growth by half. Turning to `COc1ncc(-c2ccc(Cl)cc2)cc1C(c1ccccc1)C(O)(CCN(C)C)c1cccc(Br)c1` (single isomer, unassigned) [Compound 388, 2-(3-bromophenyl)-1-(5-(4-chlorophenyl)-2-methoxypyridin-3-yl)-4-(dimethylamino)-1-phenylbutan-2-ol], the MIC in data set [1] was 0.0156 µg/mL; in the data set with M. tuberculosis H37Rv (setting [3]) it was 0.062 µg/mL; in the data set with M. tuberculosis H37R, below 0.125 µg/mL. This molecule also came in with a half-inhibitory concentration (IC50) in the data set on Vero Cell above 32 µg/mL. In data set [2], this molecule showed a cytotoxic concentration (CC50) of 26.2 µg/mL (≈ 46.2 µM).

In the case of `COc1ncc(-c2ccc(Cl)cc2)cc1C(c1ccccc1)C(O)(CCN(C)C)c1ccc(Br)cc1` (single isomer, unassigned) [Compound 390, 2-(4-bromophenyl)-1-(5-(4-chlorophenyl)-2-methoxypyridin-3-yl)-4-(dimethylamino)-1-phenylbutan-2-ol], the MIC in data set [1] is 0.0625 µg/mL; in the data set with M. tuberculosis H37Rv (setting [3]), 0.087 µg/mL; with M. tuberculosis H37R, below 0.125 µg/mL. The same molecule gave a 50% inhibitory concentration (IC50) with Vero Cell above 32 µg/mL. The same molecule gave a CC50 in data set [2] of 24.1 µg/mL (≈ 42.7 µM).

With `COc1cccc(C(c2cc(-c3ccc(Cl)cc3)cnc2OC)C(O)(CCN(C)C)c2cc(Cl)cc(Cl)c2)c1OC` (single isomer, unassigned) [Compound 395, 1-(5-(4-chlorophenyl)-2-methoxypyridin-3-yl)-2-(3,5-dichlorophenyl)-1-(2,3-dimethoxyphenyl)-4-(dimethylamino)butan-2-ol], the MIC in data set [1] is 0.039 µg/mL; in the data set on M. tuberculosis H37Rv (setting [3]), 0.031 µg/mL; in the data set with M. tuberculosis H37R it was below 0.125 µg/mL. The molecule further showed a half-inhibitory concentration (IC50) with Vero Cell above 32 µg/mL. Besides, in data set [2], the cytotoxic concentration (CC50) is above 64 µg/mL.

For the molecule `COc1cccc(C(c2cc(-c3ccc(Cl)cc3)cnc2OC)C(O)(CCN(C)C)c2cccc(Cl)c2)c1OC` (single isomer, unassigned) [Compound 399], the MIC in data set [1] was at most 0.0625 µg/mL. Also, the cytotoxic concentration (CC50) in data set [2] is above 64 µg/mL.

As to `COc1nc(OC)c(C(c2ccccc2)C(O)(CCN(C)C)c2cccc3ccccc23)cc1-c1ccc(Cl)cc1` (single isomer, unassigned) [Compound 401, 1-(5-(4-chlorophenyl)-2,6-dimethoxypyridin-3-yl)-4-(dimethylamino)-2-(naphthalen-1-yl)-1-phenylbutan-2-ol], the MIC stood at 0.0312 µg/mL in data set [1], 0.05 µg/mL in the data set on M. tuberculosis H37Rv (setting [3]) and 0.19 µg/mL (≈ 0.335 µM) in the data set on M. tuberculosis H37R. This molecule also displayed a concentration for half-maximal inhibition (IC50) with Vero Cell above 32 µg/mL. Also, the half-maximal cytotoxic concentration (CC50) in data set [2] is above 64 µg/mL.

In the case of `COc1ncc(-c2ccccc2)cc1C(c1ccccc1)C(O)(CCN(C)C)c1ccccc1` (stereo not drawn) [Compound 22, 4-(dimethylamino)-1-(2-methoxy-5-phenylpyridin-3-yl)-1,2-diphenylbutan-2-ol], the MIC with M. tuberculosis H37Rv (setting [3]) stood at 1.48 µg/mL; with M. tuberculosis H37R it was 1.15 µg/mL (≈ 2.54 µM). In the data set on Vero Cell, this molecule yielded an IC50 above 50 µg/mL. Further, in data set [2], the midpoint of cytotoxicity, the CC50, lay at 12 µg/mL (≈ 26.4 µM).

With `COc1ncc(-c2ccccc2)cc1C(c1ccccc1)C(O)(CCN(C)C)c1cc(F)ccc1F` (stereo not drawn) [Compound 39, 2-(2,5-difluorophenyl)-4-(dimethylamino)-1-(2-methoxy-5-phenylpyridin-3-yl)-1-phenylbutan-2-ol], the figures for the MIC (in data set [1]; with M. tuberculosis H37Rv (setting [3]); in the data set on M. tuberculosis H37R) were 0.125 µg/mL, 0.68 µg/mL and 0.71 µg/mL (≈ 1.45 µM), respectively. The half-inhibitory concentration (IC50) with Vero Cell was above 50 µg/mL.

In the case of `COc1ncc(-c2ccccc2)cc1C(c1cccc(Cl)c1)C(O)(CCN(C)C)c1ccccc1` (stereo not drawn) [Compound 43, 1-(3-chlorophenyl)-4-(dimethylamino)-1-(2-methoxy-5-phenylpyridin-3-yl)-2-phenylbutan-2-ol], the MIC in data set [1] is 0.125 µg/mL; in the data set on M. tuberculosis H37Rv (setting [3]), 1.18 µg/mL; in the data set on M. tuberculosis H37R, 1.42 µg/mL (≈ 2.92 µM). In addition, the IC50 in the data set with Vero Cell is above 50 µg/mL.

As for `COc1ncc(-c2ccccc2)cc1C(c1ccc(Cl)cc1)C(O)(CCN(C)C)c1ccccc1` (stereo not drawn) [Compound 47, 1-(4-chlorophenyl)-4-(dimethylamino)-1-(2-methoxy-5-phenylpyridin-3-yl)-2-phenylbutan-2-ol], the results for the MIC (in data set [1]; in the data set on M. tuberculosis H37Rv (setting [3]); with M. tuberculosis H37R) were 0.125 µg/mL, 1.25 µg/mL and 0.75 µg/mL (≈ 1.54 µM), respectively. For the same molecule, in the data set on Vero Cell, the 50% inhibitory concentration (IC50) is above 50 µg/mL.

Consider `COc1ncc(-c2ccccc2)cc1C(c1ccccc1F)C(O)(CCN(C)C)c1ccccc1` (stereo not drawn) [Compound 51, 4-(dimethylamino)-1-(2-fluorophenyl)-1-(2-methoxy-5-phenylpyridin-3-yl)-2-phenylbutan-2-ol], for which the MIC in data set [1] is at most 0.0625 µg/mL; in the data set with M. tuberculosis H37Rv (setting [3]) it was 1.2 µg/mL; in the data set on M. tuberculosis H37R it was 1.77 µg/mL (≈ 3.76 µM). In addition, in the data set on Vero Cell, the half-inhibitory concentration (IC50) was above 50 µg/mL.

On to `COc1ncc(-c2ccccc2)cc1C(c1cccc(F)c1)C(O)(CCN(C)C)c1ccccc1` (stereo not drawn) [Compound 55, 4-(dimethylamino)-1-(3-fluorophenyl)-1-(2-methoxy-5-phenylpyridin-3-yl)-2-phenylbutan-2-ol], for which the values for the MIC (in data set [1]; in the data set with M. tuberculosis H37Rv (setting [3]); in the data set with M. tuberculosis H37R) were 0.125 µg/mL, 1.15 µg/mL and 2.06 µg/mL (≈ 4.38 µM), respectively. In the data set on Vero Cell, the IC50 is above 50 µg/mL.

Regarding `COc1cccc(C(c2cc(-c3ccccc3)cnc2OC)C(O)(CCN(C)C)c2ccccc2)c1OC` (stereo not drawn) [Compound 71, 1-(2,3-dimethoxyphenyl)-4-(dimethylamino)-1-(2-methoxy-5-phenylpyridin-3-yl)-2-phenylbutan-2-ol], the MIC was at most 0.0625 µg/mL in data set [1], 1.4 µg/mL in the data set with M. tuberculosis H37Rv (setting [3]) and 1.47 µg/mL (≈ 2.87 µM) with M. tuberculosis H37R. The IC50 in the data set with Vero Cell was above 50 µg/mL.

Take `COc1ncc(-c2ccccc2F)cc1C(c1ccccc1)C(O)(CCN(C)C)c1cccc2ccccc12` (stereo not drawn) [Compound 83, 4-(dimethylamino)-1-(5-(2-fluorophenyl)-2-methoxypyridin-3-yl)-2-(naphthalen-1-yl)-1-phenylbutan-2-ol]: the MIC in data set [1] was 0.125 µg/mL; with M. tuberculosis H37Rv (setting [3]) it was 1.41 µg/mL; in the data set on M. tuberculosis H37R it was 0.57 µg/mL (≈ 1.09 µM). Besides, the half-maximal inhibitory concentration (IC50) in the data set on Vero Cell was above 50 µg/mL.

Turning to `COc1ncc(-c2cccc(Cl)c2)cc1C(c1ccccc1)C(O)(CCN(C)C)c1cccc2ccccc12` (stereo not drawn) [Compound 111], the MIC was found to be 0.5 µg/mL in data set [1], 2.73 µg/mL in the data set with M. tuberculosis H37Rv (setting [3]) and 1.36 µg/mL (≈ 2.53 µM) with M. tuberculosis H37R. Besides, the IC50 in the data set on Vero Cell was above 50 µg/mL.

For `COc1ncc(-c2ccc(Br)cc2)cc1C(c1ccccc1)C(O)(CCN(C)C)c1cc(F)ccc1F` (stereo not drawn) [Compound 308, 1-(5-(4-bromophenyl)-2-methoxypyridin-3-yl)-2-(2,5-difluorophenyl)-4-(dimethylamino)-1-phenylbutan-2-ol], the MIC amounted to 0.09 µg/mL in the data set on M. tuberculosis H37Rv (setting [3]) and 0.19 µg/mL (≈ 0.335 µM) with M. tuberculosis H37R. In the data set with Vero Cell, this molecule returned an IC50 above 32 µg/mL. The CC50 in data set [2] is above 64 µg/mL.

On to `COc1ncc(-c2ccc(Cl)cc2)cc1C(c1ccc(Cl)cc1)C(O)(CCN(C)C)c1cccc2ccccc12` (stereo not drawn) [Compound 329], for which the MIC worked out at 0.08 µg/mL with M. tuberculosis H37Rv (setting [3]) and 2.02 µg/mL (≈ 3.53 µM) in the data set on M. tuberculosis H37R. Also, in the data set on Vero Cell, the IC50 is above 32 µg/mL. This molecule yielded a CC50 in data set [2] above 64 µg/mL.

With `COc1cc(-c2cnc(OC)c(C(c3ccccc3)C(O)(CCN(C)C)c3cccc4ccccc34)c2)ccc1Cl` (stereo not drawn) [Compound 379], in data set [1], the MIC is 0.125 µg/mL. The 50% cytotoxic concentration (CC50) in data set [2] was 61.8 µg/mL (≈ 109 µM).

Consider `NNC(=O)c1ccncc1` [isoniazide, isoniazid, reference compound], for which the MIC in the data set with M. tuberculosis H37Rv (setting [4]) stood at 0.37 µM. Besides, the “MABA MIC vs. H37Rv” value in the data set with M. tuberculosis H37Rv (setting [5]) was 0.53 µM.

Take `CO[C@H]1/C=C/O[C@@]2(C)Oc3c(C)c(O)c4c(O)c(c(/C=N/N5CCN(C)CC5)c(O)c4c3C2=O)NC(=O)/C(C)=C\C=C\[C@H](C)[C@H](O)[C@@H](C)[C@@H](O)[C@@H](C)[C@H](OC(C)=O)[C@@H]1C` [rifampin, reference compound]: the MIC in the data set with M. tuberculosis H37Rv (setting [4]) worked out at 0.12 µM. Also, the “MABA MIC vs. H37Rv” value in the data set with M. tuberculosis H37Rv (setting [5]) stood at 0.24 µM.

Values taken from patent US9878982B2, “Pyridine derivatives and anti-mycobacterial use thereof” (priority 2014, dated 2018).
